≈ marks a conversion by molar mass, not a printed value.

Common to all, as to type: cell-based
In test [1] the test system is Klebsiella pneumoniae ATCC 10031. Nature of the test: MIC, Klebsiella pneumoniae ATCC 10031 (KP). The following applies: Klebsiella pneumoniae ATCC 10031; for MIC: ATCC10031, read-out: MIC KP.
The subject of the next test is Bacillus subtilis. The test can be described thus: MIC, Bacillus subtilis (BS). The following applies: for MIC: read-out: MIC BS.
Test [2] deals with Staphylococcus aureus ATCC 6538P. Nature of the test: MIC, Staphylococcus aureus ATCC 6538P (SA(1)). To be noted: Staphylococcus aureus ATCC 6538P; for MIC: Staphylococcus aureus, ATCC6538P, read-out: MIC SA (1). An excerpt:
(§1) The minimum inhibitory concentrations (MIC: mcg/ml) of the erythromycin derivatives of the present invention and the control erythromycin derivative (*) as the known growth promoting agent on typical test bacteria are shown in the following Tables 1 to 5.
SA(1): Staphylococcus aureus ATCC 6538P

Test [3] relates to Staphylococcus aureus FDA 209P. Nature of the test: MIC, Staphylococcus aureus FDA 209P (SA(2)). The following applies: Staphylococcus aureus FDA 209P; for MIC: Staphylococcus aureus, FDA209P, read-out: MIC SA (2).
Source text: as §1
SA(2): Staphylococcus aureus FDA 209P

Another test deals with Bacillus cereus IFO 3001. Nature of the test: MIC, Bacillus cereus IFO 3001 (BC). The following applies: for MIC: Bacillus cereus, IFO3001, Bacillus cereus IFO 3001, read-out: MIC BC; for MIC BC: Bacillus cereus IFO 3001.
Another test relates to Escherichia coli NIHJ. The test can be described thus: MIC, Escherichia coli NIHJ (EC).

The term MIC denotes the smallest concentration in the dilution series that meets the test's criterion for growth inhibition. `CCC1OC(=O)C(C)C(OC2CC(C)(OC)C(O)C(C)O2)C(C)C(OC2OC(C)CC([N+]3(C)CCCCC3)C2O)C2(C)CC(C)=C(O2)C(C)C(O)C1(C)O` (stereo not drawn) [Compound 25]: the MIC (in test [1]; with Bacillus subtilis; in test [2]; in test [3]; in the test on Bacillus cereus IFO 3001; in the test with Escherichia coli NIHJ) was > 100 µg/mL in each case.
Take `C#CC[N+](C)(C)C1CC(C)OC(OC2C(C)C(OC3CC(C)(OC)C(O)C(C)O3)C(C)C(=O)OC(CC)C(C)(O)C(O)C(C)C3=C(C)CC2(C)O3)C1O` (stereo not drawn) [Compound 51]: in test [1], the “MIC KP” value was > 100 µg/mL. For the same molecule, the “MIC BS” value in the test with Bacillus subtilis was > 100 µg/mL. For the same molecule, the “MIC SA (1)” value in test [2] was > 100 µg/mL. Also, the “MIC SA (2)” value in test [3] is > 100 µg/mL. Also, the “MIC BC” value in the test on Bacillus cereus IFO 3001 was > 100 µg/mL. Besides, the “MIC EC” value in the test with Escherichia coli NIHJ was > 100 µg/mL.
Turning to `CCC[N+](C)(C)C1CC(C)OC(OC2C(C)C(OC3CC(C)(OC)C(O)C(C)O3)C(C)C(=O)OC(CC)C(C)(O)C(O)C(C)C3=C(C)CC2(C)O3)C1O` (stereo not drawn) [Compound 6], the MIC (in test [1]; with Bacillus subtilis; in test [2]; in test [3]; in the test with Bacillus cereus IFO 3001; with Escherichia coli NIHJ) was > 100 µg/mL in each case.
Regarding `CCNC1CC(C)OC(OC2C(C)C(OC3CC(C)(OC)C(O)C(C)O3)C(C)C(=O)OC(CC)C(C)(O)C(O)C(C)C3=C(C)CC2(C)O3)C1O` (stereo not drawn) [Compound 21], the minimum inhibitory concentration (MIC) (in test [1]; in the test with Bacillus subtilis; in test [2]; in test [3]; in the test on Bacillus cereus IFO 3001; against Escherichia coli NIHJ) was > 100 µg/mL throughout.
Turning to `C#CC[N+](CC=C)(CC=C)C1CC(C)OC(OC2C(C)C(OC3CC(C)(OC)C(O)C(C)O3)C(C)C(=O)OC(CC)C(C)(O)C(O)C(C)C3=C(C)CC2(C)O3)C1O` (stereo not drawn) [Compound 47], the MIC in test [1] is > 100 µg/mL; with Bacillus subtilis, 100 µg/mL; in test [2], 100 µg/mL; in test [3], 100 µg/mL; with Bacillus cereus IFO 3001, 50 µg/mL; against Escherichia coli NIHJ it was > 100 µg/mL.
Take `C=CC[N+](C)(C)C1CC(C)OC(OC2C(C)C(OC3CC(C)(OC)C(O)C(C)O3)C(C)C(=O)OC(CC)C(C)(O)C(O)C(C)C3=C(C)CC2(C)O3)C1O` (stereo not drawn) [Compound 16]: the MIC was > 100 µg/mL in test [1]; > 100 µg/mL in the test on Bacillus subtilis; 100 µg/mL in test [2]; > 100 µg/mL in test [3]; > 100 µg/mL in the test with Bacillus cereus IFO 3001; > 100 µg/mL against Escherichia coli NIHJ.
For the molecule `CCC1OC(=O)C(C)C(OC2CC(C)(OC)C(O)C(C)O2)C(C)C(OC2OC(C)CC([N+](C)(C)CC#N)C2O)C2(C)CC(C)=C(O2)C(C)C(O)C1(C)O` (stereo not drawn) [Compound 33], the minimal inhibitory concentration (MIC) (in test [1]; in the test on Bacillus subtilis; in test [2]; in test [3]; with Bacillus cereus IFO 3001; against Escherichia coli NIHJ) was > 100 µg/mL throughout.
As to `C#CC[N+](C)(C)C1CC(C)OC(OC2C(C)C(OC3CC(C)(OC)C(O)C(C)O3)C(C)C(=O)OC(CC)C(C)(O)C(O)C(C)C3=C(C)CC2(C)O3)C1O` (stereo not drawn) [Compound 27], the MIC was > 100 µg/mL in test [1]; 100 µg/mL in the test with Bacillus subtilis; 100 µg/mL in test [2]; 100 µg/mL in test [3]; 100 µg/mL in the test on Bacillus cereus IFO 3001; > 100 µg/mL in the test on Escherichia coli NIHJ.
On to `C=CCNC1CC(C)OC(OC2C(C)C(OC3CC(C)(OC)C(O)C(C)O3)C(C)C(=O)OC(CC)C(C)(O)C(O)C(C)C3=C(C)CC2(C)O3)C1O` (stereo not drawn) [Compound 39], for which the minimal inhibitory concentration (MIC) (in test [1]; in the test on Bacillus subtilis; in test [2]; in test [3]; in the test with Bacillus cereus IFO 3001; with Escherichia coli NIHJ) was > 100 µg/mL each time.
On to `C=CC[N+](C)(C)[C@H]1C[C@@H](C)O[C@@H](O[C@@H]2[C@@H](C)[C@H](O[C@H]3C[C@@](C)(OC)[C@@H](O)[C@H](C)O3)[C@@H](C)C(=O)O[C@H](CC)[C@@](C)(O)[C@H](O)[C@@H](C)C(=O)[C@H](C)C[C@@]2(C)O)[C@@H]1O` [Compound 77], for which the minimum inhibitory concentration (MIC) in test [1] is > 100 µg/mL; in the test on Bacillus subtilis it was 12.5 µg/mL; in test [2], 25 µg/mL; in test [3], 50 µg/mL; with Bacillus cereus IFO 3001, 12.5 µg/mL; in the test with Escherichia coli NIHJ, > 100 µg/mL.
As to `CCC[N+](C)(C)[C@H]1C[C@@H](C)O[C@@H](O[C@@H]2[C@@H](C)[C@H](O[C@H]3C[C@@](C)(OC)[C@@H](O)[C@H](C)O3)[C@@H](C)C(=O)O[C@H](CC)[C@@](C)(O)[C@H](O)[C@@H](C)C3O[C@]2(C)CC3C)[C@@H]1O` (stereo partly drawn) [Compound 64], the minimal inhibitory concentration (MIC) (in test [1]; with Bacillus subtilis; in test [2]; in test [3]; with Bacillus cereus IFO 3001; in the test with Escherichia coli NIHJ) was > 100 µg/mL each time.
On to `CCC[N+](C)(C)[C@H]1C[C@@H](C)O[C@@H](O[C@@H]2[C@@H](C)[C@H](O[C@H]3C[C@@](C)(OC)[C@@H](O)[C@H](C)O3)[C@@H](C)C(=O)O[C@H](CC)[C@@]3(C)OC4(O[C@]2(C)CC4C)[C@H](C)[C@H]3O)[C@@H]1O` (stereo partly drawn) [Compound 72], for which the MIC (in test [1]; in the test with Bacillus subtilis; in test [2]; in test [3]; in the test with Bacillus cereus IFO 3001; in the test with Escherichia coli NIHJ) was > 100 µg/mL in each case.
In the case of `C#CC[N+](C)(C)[C@H]1C[C@@H](C)O[C@@H](O[C@@H]2[C@@H](C)[C@H](O[C@H]3C[C@@](C)(OC)[C@@H](O)[C@H](C)O3)[C@@H](C)C(=O)O[C@H](CC)[C@@](C)(O)[C@H](O)[C@@H](C)C3O[C@]2(C)CC3C)[C@@H]1O` (stereo partly drawn) [Compound 67], the minimal inhibitory concentration (MIC) (in test [1]; in the test with Bacillus subtilis; in test [2]; in test [3]; with Bacillus cereus IFO 3001; with Escherichia coli NIHJ) was > 100 µg/mL each time.
Regarding `CCC1OC(=O)C(C)C(OC2CC(C)(OC)C(O)C(C)O2)C(C)C(OC2OC(C)CC([N+](C)(C)CC)C2O)C2(C)CC(C)=C(O2)C(C)C(O)C1(C)O` (stereo not drawn) [Compound 19], the “MIC KP” value in test [1] is > 100 µg/mL. Besides, in the test with Bacillus subtilis, the “MIC BS” value is > 100 µg/mL. The “MIC SA (1)” value in test [2] was > 100 µg/mL. For the same molecule, the “MIC BC” value against Bacillus cereus IFO 3001 was > 100 µg/mL. Besides, the “MIC EC” value in the test on Escherichia coli NIHJ was > 100 µg/mL.
In the case of `CC[C@H]1OC(=O)[C@H](C)[C@@H](O[C@H]2C[C@@](C)(OC)[C@@H](O)[C@H](C)O2)[C@H](C)[C@@H](O[C@@H]2O[C@H](C)C[C@H](N(C)C)[C@H]2O)[C@@]2(C)CC(C)C3(O[C@@]1(C)[C@H](O)[C@H]3C)O2` (stereo partly drawn) [*2 (EM202), Anhydroerythromycin A, reference compound], the minimal inhibitory concentration (MIC) in test [2] and in test [3] was 12.5 µg/mL (≈ 17.5 µM) throughout.
For the molecule `CCC1OC(=O)C(C)C(OC2CC(C)(OC)C(O)C(C)O2)C(C)C(OC2OC(C)CC([N+](C)(C)CC3CC3)C2O)C2(C)CC(C)=C(O2)C(C)C(O)C1(C)O` (stereo not drawn) [Compound 50], the minimum inhibitory concentration (MIC) in test [1] is > 100 µg/mL; with Bacillus subtilis it was > 100 µg/mL; in test [2] it was 100 µg/mL; in test [3], > 100 µg/mL; against Escherichia coli NIHJ, > 100 µg/mL.

(Values after patent US4948782A, “A method of promoting the growth of domestic animals with erythromycin derivative containing composition” (Kitasato Kenkyusho, priority 1987, dated 1990).)
